According to patent US11548875B2, “Inhibitor compounds for male contraception” (University of Washington, priority 2018, dated 2023):
Where a name gives a salt, the structure may show the parent alone. Read-outs that look alike come from different tables or passages of the source.

What was measured:
ALDH1A2 = molecular target: T1, ALDH1A2 (Homo sapiens, UniProt O94788); test: Cell-based enzyme assay, retinoic acid production in ALDH1A2/H1299 cells
T1 sequence (O94788 1-518): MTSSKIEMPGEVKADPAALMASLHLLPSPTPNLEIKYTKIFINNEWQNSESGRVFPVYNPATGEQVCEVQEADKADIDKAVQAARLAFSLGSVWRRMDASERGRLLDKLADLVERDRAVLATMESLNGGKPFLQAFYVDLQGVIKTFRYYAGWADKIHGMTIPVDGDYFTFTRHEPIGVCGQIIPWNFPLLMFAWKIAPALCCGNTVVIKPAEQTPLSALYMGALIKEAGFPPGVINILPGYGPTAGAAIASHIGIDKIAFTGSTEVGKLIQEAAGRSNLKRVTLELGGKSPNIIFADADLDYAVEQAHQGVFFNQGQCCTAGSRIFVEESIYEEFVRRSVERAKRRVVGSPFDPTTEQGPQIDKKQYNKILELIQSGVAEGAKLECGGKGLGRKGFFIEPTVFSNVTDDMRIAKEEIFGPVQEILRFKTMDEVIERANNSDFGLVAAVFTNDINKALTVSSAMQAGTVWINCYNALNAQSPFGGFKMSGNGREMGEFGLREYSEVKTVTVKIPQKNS
Outline: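 ALDH1A1- or ALDH1A2-stably transfected H1299 cells grown to confluence, then treated 20 h in serum-free RPMI-1640 with 2 μM all-trans-retinal plus varying inhibitor concentrations at 37 °C. Retinoic acid in cells and media quantified; inhibition from RA levels with vs without inhibitor.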

ALDH2 = molecular target: T2, ALDH2 (Homo sapiens, UniProt P05091); test: Purified ALDH2 assay with propanal, NADH fluorescence; assay type: biochemical; conditions: purified enzyme
T2 construct: histidine-tag (N); made in house; host or cells: bacterial expression (pETite vector, IPTG induction)
T2 sequence (P05091 18-517): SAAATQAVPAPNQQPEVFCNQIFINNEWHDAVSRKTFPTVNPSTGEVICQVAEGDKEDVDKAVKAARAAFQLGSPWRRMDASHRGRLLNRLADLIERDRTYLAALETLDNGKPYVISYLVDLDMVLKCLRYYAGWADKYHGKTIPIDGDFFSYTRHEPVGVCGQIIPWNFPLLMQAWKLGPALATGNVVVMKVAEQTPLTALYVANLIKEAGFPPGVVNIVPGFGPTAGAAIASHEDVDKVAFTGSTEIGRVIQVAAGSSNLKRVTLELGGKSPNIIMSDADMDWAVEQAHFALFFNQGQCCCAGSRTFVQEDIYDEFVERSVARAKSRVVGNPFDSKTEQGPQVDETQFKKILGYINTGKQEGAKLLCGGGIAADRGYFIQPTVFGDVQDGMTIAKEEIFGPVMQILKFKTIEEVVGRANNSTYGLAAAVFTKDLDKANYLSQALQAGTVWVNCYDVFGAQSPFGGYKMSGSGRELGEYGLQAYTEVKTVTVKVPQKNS
Outline: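 His-tagged human ALDH2 expressed in bacteria and purified. 2 μg enzyme incubated with 20 μM propanal and varying inhibitor concentrations at room temperature. Activity read as NADH fluorescence (Ex 350/Em 460 nm), with initial velocity from two consecutive readings over 1 minute.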

EC50 (ALDH1A2; cell-based) [µM] | IC50 (ALDH2) [µM] | EC50 (ALDH1A2) [µM] | Compound
0.798 | 18.2 | – | O=Cc1cn(-c2ccccc2)nc1-c1ccc(O)cc1 [Cmpd 34]
0.065 | 20.9 | – | CS(=O)(=O)c1ccc(-c2nn(-c3ccccc3)cc2C(=O)Nc2cccc(F)c2)cc1 [Compound 178, 3-(4-(Methylsulfonyl)phenyl)-N-(3-fluorophenyl)-1-phenyl-1H-pyrazole-4-carboxamide]
0.12 | 15.5 | – | CS(=O)(=O)c1ccc(-c2nn(-c3ccccc3)cc2C(=O)Nc2cccc(O)c2)cc1 [Compound 211, 3-(4-(Methylsulfonyl)phenyl)-N-(3-hydroxyphenyl)-1-phenyl-1H-pyrazole-4-carboxamide]
0.11 | > 25 | – | CS(=O)(=O)c1ccc(-c2nn(-c3ccccc3)cc2C(=O)Nc2cccc(Cl)c2)cc1 [Compound 219, 3-(4-(Methylsulfonyl)phenyl)-N-(3-chlorophenyl)-1-phenyl-1H-pyrazole-4-carboxamide]
0.088 | 133 | – | CCS(=O)(=O)c1ccc(-c2nn(-c3ccccc3)cc2C(=O)Nc2cccc(F)c2)cc1 [Compound 223, 3-(4-(Ethylsulfonyl)phenyl)-N-(3-fluorophenyl)-1-phenyl-1H-pyrazole-4-carboxamide]
0.069 | 67.3 | – | CS(=O)(=O)c1ccc(-c2nn(-c3ccccc3)cc2C(=O)Nc2cccc(F)c2O)cc1 [Compound 231, N-(3-Fluoro-2-hydroxyphenyl)-3-[4-(methylsulfonyl)phenyl]-1-phenyl-1H-pyrazole-4-carboxamide]
0.055 | 87.2 | – | CS(=O)(=O)c1ccc(-c2nn(-c3ccc(Cl)cc3)cc2C(=O)Nc2ccccc2O)cc1 [Compound 233, N-(2-Hydroxyphenyl)-3-[4-(methylsulfonyl)phenyl]-1-(4-chloropheny)-1H-pyrazole-4-carboxamide]
0.056 | 16.6 | – | CS(=O)(=O)c1ccc(-c2nn(-c3ccc(F)cc3)cc2C(=O)Nc2cccc(F)c2)cc1 [Compound 241, N-(3-Fluorophenyl)-3-[4-(methylsulfonyl)phenyl]-1-(4-fluorophenyl)-1H-pyrazole-4-carboxamide]
0.051 | 100 | – | CS(=O)(=O)c1ccc(-c2nn(-c3ccc(OC(F)(F)F)cc3)cc2C(=O)Nc2cccc(F)c2)cc1 [Compound 258, N-(3-Fluorophenyl)-1-(4-trifluoromethoxypheny)-3-[4-(methylsulfonyl)phenyl]-1H-pyrazole-4-carboxamide]
0.016 | 16.7 | – | CS(=O)(=O)c1ccc(-c2nn(-c3ccc(C#N)cc3)cc2C(=O)Nc2cccc(C(F)(F)F)c2)cc1 [Compound 262, 1-(4-Cyanophenyl)-N-(3-trifluoromethylphenyl)-3-[4-(methylsulfonyl)phenyl]-1H-pyrazole-4-carboxamide]
0.354 | 100 | – | CS(=O)(=O)c1ccc(-c2nn(-c3cccc(F)c3)cc2C(=O)Nc2cccc(C(F)(F)F)c2)cc1 [Compound 266, 1-(3-Fluorophenyl)-N-(3-trifluoromethylphenyl)-3-[4-(methylsulfonyl)phenyl]-1H-pyrazole-4-carboxamide]
0.026 | 83.7 | – | CS(=O)(=O)c1ccc(-c2nn(-c3cccc(C#N)c3)cc2C(=O)Nc2cccc(F)c2)cc1 [Compound 268, 1-(3-Cyanophenyl)-N-(3-fluorophenyl)-3-[4-(methylsulfonyl)phenyl]-1H-pyrazole-4-carboxamide]
0.045 | 67.7 | – | CS(=O)(=O)c1ccc(-c2nn(-c3cccc(C#N)c3)cc2C(=O)Nc2ccc(F)c(F)c2)cc1 [Compound 269, 1-(3-Cyanophenyl)-N-(3,4-difluorophenyl)-3-[4-(methylsulfonyl)phenyl]-1H-pyrazole-4-carboxamide]
0.013 | 4 | – | N#Cc1ccc(-n2cc(C(=O)Nc3cccc(F)c3)c(-c3ccc(NC(=O)C(Cl)Cl)cc3)n2)cc1 [Compound 316a, 3-(4-Dichloroacetamidophenyll)-N-(3-fluorophenyl)-1-(4-cyanophenyl)-1H-pyrazole-4-carboxamide]
– | 52 | 0.457 | CCc1ccc(C(=O)N2CCN(c3ccc([N+](=O)[O-])c(N4CCCC4)c3)CC2)s1 [Compound 323, {4-[4-Nitro-3-(pyrrolidin-1-yl)phenyl]piperazin-1-yl}(5-ethylthiophen-2-yl)methanone]
– | 97.3 | 0.11 | CCOc1ccsc1C(=O)N1CCN(c2ccc([N+](=O)[O-])c(N3CCCC3)c2)CC1 [Compound 326, {4-[4-Nitro-3-(pyrrolidin-1-yl)phenyl]piperazin-1-yl}(3-ethoxythiophen-2-yl)methanone]
– | 79.8 | 0.862 | Cc1cc(C(=O)N2CCN(c3ccc([N+](=O)[O-])c(N4CCCC4)c3)CC2)sc1C [Compound 327, {4-[4-Nitro-3-(pyrrolidin-1-yl)phenyl]piperazin-1-yl}(4,5-dimethylthiophen-2-yl)methanone]
– | 86.4 | < 0.5 | COc1ccsc1C(=O)N1CCN(c2ccc([N+](=O)[O-])c(N3CCCC3)c2)CC1 [Compound 329, {4-[4-Nitro-3-(pyrrolidin-1-yl)phenyl]piperazin-1-yl}(3-methoxythiophen-2-yl)methanone]
– | 24.9 | 0.121 | Nc1ccsc1C(=O)N1CCN(c2ccc([N+](=O)[O-])c(N3CCCC3)c2)CC1 [Compound 331, {4-[4-Nitro-3-(pyrrolidin-1-yl)phenyl]piperazin-1-yl}(3-aminothiophen-2-yl)methanone hydrochloride]
– | 58.3 | 0.437 | CC(=O)Nc1ccsc1C(=O)N1CCN(c2ccc([N+](=O)[O-])c(N3CCCC3)c2)CC1 [Compound 332]
– | > 100 | 0.377 | O=C(c1ccc(F)s1)N1CCN(c2ccc([N+](=O)[O-])c(N3CCCC3)c2)CC1 [Compound 334, {4-[4-Nitro-3-(pyrrolidin-1-yl)phenyl]piperazin-1-yl}(5-fluorothiophen-2-yl)methanone]
– | 48.1 | 0.293 | O=C(c1ccccc1)N1CCN(c2ccc([N+](=O)[O-])c(N3CCCC3)c2)CC1 [Compound 339, Phenyl-1-{4-[4-nitro-3-(pyrrolidin-1-yl)phenyl]piperazin-1-yl}methanone]
– | > 100 | 0.505 | O=C(c1cccc(Cl)c1)N1CCN(c2ccc([N+](=O)[O-])c(N3CCCC3)c2)CC1 [Compound 341, 3-Chlorophenyl-1-{4-[4-nitro-3-(pyrrolidin-1-yl)phenyl]piperazin-1-yl}methanone]
– | > 100 | 0.966 | O=C(c1ccc(Cl)cc1)N1CCN(c2ccc([N+](=O)[O-])c(N3CCCC3)c2)CC1 [Compound 342, 4-Chlorophenyl-1-{4-[4-nitro-3-(pyrrolidin-1-yl)phenyl]piperazin-1-yl}methanone]
– | 97.5 | < 0.5 | Cn1cccc1C(=O)N1CCN(c2ccc([N+](=O)[O-])c(N3CCCC3)c2)CC1 [Compound 343, [4-(4-Nitro-3-(pyrrolidin-1-yl)phenyl)piperazin-1-yl](1-methyl-1H-pyrrol-2-yl)methanone]
– | 48.6 | < 0.5 | O=C(c1ccc[nH]1)N1CCN(c2ccc([N+](=O)[O-])c(N3CCCC3)c2)CC1 [Compound 344, {4-[4-Nitro-3-(pyrrolidin-1-yl)phenyl]piperazin-1-yl}(1H-pyrrol-2-yl)methanone]
– | > 100 | 1.19 | COc1ccc(C(=O)N2CCN(c3ccc([N+](=O)[O-])c(N4CCCC4)c3)CC2)cc1 [Compound 345, 4-Methoxyphenyl-1-{4-[4-nitro-3-(pyrrolidin-1-yl)phenyl]piperazin-1-yl}methanone]

Compound | EC50 (ALDH1A2; cell-based) [µM] | IC50 (ALDH2) [µM] | EC50 (ALDH1A2) [µM]
3-(4-Acryloylphenyl)-1-phenyl-1H-pyrazole-4-carbaldehyde [Compound 309] | 0.87 | > 0.16 | –
3-{4-[(Chloroacetyl)amino]phenyl}-N-(3-fluorophenyl)-1-phenyl-1H-pyrazole-4-carboxamide [Compound 294] | < 0.005 | 24.4 | –
